Data from ChEMBL document CHEMBL1201862, “PubChem BioAssay data set” (2004).
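These data come from cells grown in 96-well plates and exposed to compound for 48 hours at five concentrations. Here, GI50 denotes the concentration required for 50% inhibition of growth.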 Active and inactive are the calls of the source. No stated cut-off is given here; in the data, active = GI50 up to about 1.1 µM and inactive = higher.

Columns and labels:
Assay in all cases: inhibition of tumour cell growth, NCI panel, 48 h
[1] = test system: HCT-116
[2] = test system: SF-268
[3] = test system: U-251
[4] = test system: HL-60
[5] = test system: EKVX
[6] = test system: MCF7
[7] = test system: UO-31
[8] = test system: CAKI-1
[9] = test system: A549
[10] = test system: Hs-578T
[11] = test system: KM12
[12] = test system: SNB-19
[13] = test system: Malme-3M
[14] = test system: K562
[15] = test system: BT-549
[16] = test system: SF-295
[17] = test system: ACHN
[18] = test system: HCT-15
[19] = test system: OVCAR-4
[20] = test system: SK-MEL-28

SMILES | GI50 [1] | GI50 [2] | GI50 [3] | GI50 [4] | GI50 [5] | GI50 [6] | GI50 [7] | GI50 [8] | GI50 [9] | GI50 [10] | GI50 [11] | GI50 [12] | GI50 [13] | GI50 [14] | GI50 [15] | GI50 [16] | GI50 [17] | GI50 [18] | GI50 [19] | GI50 [20]
Nc1n[n+]2cc(-c3ccccc3)n(CC(=O)c3ccccc3)c2s1 | 16.7 µM (inactive) | 20.3 µM (inactive) | 16.1 µM (inactive) | 35.5 µM (inactive) | 39.6 µM (inactive) | 10.8 µM (inactive) | 76.2 µM (inactive) | > 100 µM (inactive) | > 100 µM (inactive) | 17 µM (inactive) | 19.8 µM (inactive) | 21.7 µM (inactive) | 12.2 µM (inactive) | 29.7 µM (inactive) | 19.6 µM (inactive) | > 100 µM (inactive) | 65.2 µM (inactive) | 44.7 µM |  | 
NS(=O)(=O)c1nnc(NC(=S)NC(=O)Nc2ccc(Cl)c(Cl)c2)s1 | 16.9 µM (inactive) | 27.5 µM (inactive) | 36.3 µM (inactive) | 26.9 µM (inactive) | 26.3 µM (inactive) | 38 µM (inactive) | 20.6 µM (inactive) | 23.4 µM (inactive) | 32 µM (inactive) | 24.3 µM (inactive) | 18.7 µM (inactive) | 28.3 µM (inactive) | 22.6 µM (inactive) | 30.4 µM (inactive) | 21.3 µM (inactive) | 21.2 µM (inactive) |  | 19.7 µM | 19.5 µM (inactive) | 37.1 µM (inactive)
CCCCSC1=N/C(=C\c2ccc(N(C)C)cc2)C(=O)N1 | 25 µM (inactive) | 32.8 µM (inactive) | 18.4 µM (inactive) | 82.8 µM (inactive) | 19.1 µM (inactive) | 30.5 µM (inactive) |  | 35.6 µM (inactive) | 17.3 µM (inactive) | 25.2 µM (inactive) | 18 µM (inactive) | 31.7 µM (inactive) | 38.4 µM (inactive) | 44.8 µM (inactive) | > 100 µM (inactive) | 28.4 µM (inactive) | 29.8 µM (inactive) | 53.5 µM | 21 µM (inactive) | 61.9 µM (inactive)
CN1CN(c2ccccc2)C2(CCN(Cc3nc4ccccc4s3)CC2)C1=O | 14.8 µM (inactive) | 20.3 µM (inactive) | 16.1 µM (inactive) | 11.4 µM (inactive) | 20.9 µM (inactive) | 15.7 µM (inactive) | 14.6 µM (inactive) | 20.1 µM (inactive) | 17.3 µM (inactive) | 18.7 µM (inactive) |  | 15 µM (inactive) | 17.8 µM (inactive) | 13.8 µM (inactive) | 16.1 µM (inactive) | 17.9 µM (inactive) | 19.6 µM (inactive) | 18.8 µM | 18.6 µM (inactive) | 17.3 µM (inactive)
O=C(NN1C(=O)/C(=C/c2ccc(Cl)cc2)N=C1c1ccccc1)c1c(Cl)c(Cl)c(Cl)c(Cl)c1-c1nc2ccccc2[nH]1 | 15.6 µM (inactive) | 14.6 µM (inactive) |  | 18.9 µM (inactive) | 19.4 µM (inactive) | 9.91 µM (inactive) | 16.3 µM (inactive) | 18.9 µM (inactive) | 5.98 µM (inactive) | 13.5 µM (inactive) | 4.15 µM (inactive) | 22.1 µM (inactive) | 20.8 µM (inactive) | 4.28 µM (inactive) | 13.4 µM (inactive) | < 0.01 µM (active) | 22.1 µM (inactive) | 9.62 µM |  | 20.3 µM (inactive)
CC1(C)O[C@H]2Cn3c(c(C#N)c4ccccc43)[C@H]2O1 | > 100 µM (inactive) | > 100 µM (inactive) | > 100 µM (inactive) | > 100 µM (inactive) | > 100 µM (inactive) | > 100 µM (inactive) | > 100 µM (inactive) | 85.1 µM (inactive) | > 100 µM (inactive) | > 100 µM (inactive) | > 100 µM (inactive) | > 100 µM (inactive) | > 100 µM (inactive) |  | > 100 µM (inactive) | > 100 µM (inactive) | > 100 µM (inactive) | > 100 µM | > 100 µM (inactive) | > 100 µM (inactive)
Cc1cc(S(=O)(=O)Nc2nc(N)n[nH]2)c(S)cc1Cl | > 10 µM (inactive) | > 10 µM (inactive) | > 10 µM (inactive) | > 10 µM (inactive) | > 10 µM (inactive) | > 10 µM (inactive) |  | > 10 µM (inactive) | > 10 µM (inactive) | > 10 µM (inactive) | > 10 µM (inactive) | > 10 µM (inactive) | > 10 µM (inactive) | > 10 µM (inactive) | > 10 µM (inactive) | > 10 µM (inactive) | > 10 µM (inactive) | > 10 µM | > 10 µM (inactive) | > 10 µM (inactive)
CCOC(=O)c1cc([N+](=O)[O-])c(Sc2ncnc3nc[nH]c23)c([N+](=O)[O-])c1 | 1.87 µM (inactive) | 4.5 µM (inactive) | 6.82 µM (inactive) | 4.19 µM (inactive) | 4.92 µM (inactive) | 1.24 µM (inactive) | 2.62 µM (inactive) | 2.37 µM (inactive) | 20.5 µM (inactive) | 9.64 µM (inactive) | 9.2 µM (inactive) | 17.1 µM (inactive) | 3.15 µM (inactive) | 0.53 µM (active) | 6.32 µM (inactive) | 3.36 µM (inactive) | 6.85 µM (inactive) | 2.48 µM |  | 14.3 µM (inactive)
CC1(C)C2CC3C4CC5(Nc6ccccc6C5N41)[C@]3(C)CC2=O (stereo partly specified) | > 50 µM (inactive) | > 50 µM (inactive) | > 50 µM (inactive) | > 50 µM (inactive) | > 50 µM (inactive) | > 50 µM (inactive) | > 50 µM (inactive) | > 50 µM (inactive) | > 50 µM (inactive) | > 50 µM (inactive) | > 50 µM (inactive) |  | > 50 µM (inactive) | > 50 µM (inactive) | > 50 µM (inactive) | > 50 µM (inactive) | > 50 µM (inactive) | > 50 µM | > 50 µM (inactive) | > 50 µM (inactive)
Cn1c2c(c3c(=O)[nH]ncc31)CCCc1ccccc1-2 | 18.1 µM (inactive) | 29.2 µM (inactive) | 27.9 µM (inactive) | 0.0817 µM (active) | 11.8 µM (inactive) | 25 µM (inactive) | 22.6 µM (inactive) | 21.8 µM (inactive) | 27.2 µM (inactive) | 20.9 µM (inactive) | 37.3 µM (inactive) | 42.7 µM (inactive) | 22.5 µM (inactive) | 11.3 µM (inactive) | 31.2 µM (inactive) | 32.5 µM (inactive) | 26.8 µM (inactive) | 29.8 µM | 37.4 µM (inactive) | 
Oc1ccc2oc3c(O)c4ccccc4cc3c2c1 | 0.296 µM (active) | 5.87 µM (inactive) | 4.86 µM (inactive) | 2.28 µM (inactive) |  | 3.33 µM (inactive) | 0.695 µM (active) | 5.32 µM (inactive) | 24.9 µM (inactive) | 23.2 µM (inactive) | 2.22 µM (inactive) | 83.4 µM (inactive) | 11.4 µM (inactive) | 0.0632 µM (active) | 5.61 µM (inactive) |  | 2.12 µM (inactive) | 1.98 µM | 1.93 µM (inactive) | 7.24 µM (inactive)
